Measurements as given in EP4578449A1, “PHARMACEUTICAL COMBINATION OF FAK INHIBITOR AND MICROTUBULE INHIBITOR AND USE THEREOF” (Inxmed (Nanjing) Co., Ltd., priority 2022, dated 2024).

How the values were obtained:
[1] = tested on: SK-OV-3 cells; test: FAK silencing combined with Docetaxel, Annexin V apoptosis by flow cytometry; format: cell-based; conditions: SK-OV-3 cells transfected with FAK siRNA 50 nM for 24 hours, then 0.3 µM or 1 µM Docetaxel 48 hours; FAK silencing group compared with control siRNA group
[2] = tested on: colon cancer CT26 cells; test: IN10018 and Docetaxel: microscopy and CRT/Annexin-V/PI flow cytometry; format: cell-based, mouse; conditions: 48 hours, IN10018 5 µM, Docetaxel 0.1 µM, alone or combined
Method: CT26 cells (Institute of Cell Biology, Chinese Academy of Sciences) were cultured with RPMI-1640 (Shanghai Basalmedia, catalog number: L210KJ, batch number: F210916) + 10% FBS (Gibco, catalog number: 10099-141c, batch number: 2158737cp), and passaged twice. When the cells were in good condition, they were placed in a 24-well plate. After 24 hours of cell spreading, four groups were set up. The first group was the control group, in which culture medium was added; the second group was IN10018 at a concentration of 5µM; the third group was Docetaxel (MCE, classification number: HY-B0011, batch number: 111613) with a concentration of 0.1µM; and the fourth group was the combination group of IN10018 (5 µM) and Docetaxel (0.1µM). The drugs were mixed and cultured in a 5 % CO2 incubator at 37°C for 48 hours.
After 48 hours of drug action, the cells were observed and photographed under a microscope. The photos were saved. Then the cells were collected for flow cytometry, and the cells were washed twice with flow buffer (PBS + 2% FBS). 0.5 µl of AF647 anti-calreticulin antibody (abcam, catalog number: ab196159, batch number: CR33676773) was added to each well, and fully mixed. The cells were incubated at 4 °C for 20 minutes in the dark. […] The mixture was incubated at room temperature in the dark for 15 minutes, and then analyzed on a flow cytometer.

[3] = tested on: breast cancer 4T1 cells; test: Subcutaneous allograft tumor model of breast cancer 4T1 cells in BALB/c mice; format: in vivo
Source text: Mice: Female BALB/c mice aged 6-8 weeks were purchased from SHANGHAI SLAC LABORATORY ANIMAL CO. LTD. The assay began after the animals were adapted to the assay environment upon arrival. The animals were kept in IVC (independent ventilation system) cages (5 per cage) in an SPF animal room. All cages, padding and drinking water must be sterilized before use. All assay personnel should wear protective clothing and latex gloves when operating in the animal room. Cages, feed and drinking water were replaced twice a week. The feeding environment and lighting conditions were as follows: • Temperature: 20-26 °C • Humidity: 40-70% • Lighting period: 12 hours light, 12 hours no light • Cages: Made of polycarbonate, 300 mm × 180 mm × 150 mm. The padding was corn cobs, which was replaced twice a week. • Food: The assay animals had free access to food (dry pelleted food sterilized by irradiation) throughout the assay period. • Drinking water: Assay animals were free to drink sterile water. • Cage identification: The animal information card for each cage should indicate the number of animals in the cage, gender, strain, receipt date, dosing regimen, assay number, group and start date of the assay. • Animal identification: Assay animals were identified with ear tags.
Breast cancer cell 4T1 (source: Nanjing Cobioer Biotechnology Co., Ltd., catalog number: CBP60352) was maintained and passaged by INXMED (Nanjing) Co., Ltd. The cells were cultured in a monolayer in vitro in RPMI-1640 medium with 10% fetal bovine serum in a 37 °C, 5% CO2 incubator. Trypsin-EDTA was used for routine digestion and passage treatment two to three times a week. When the cells were in the exponential growth phase and the adherent confluence reached 80%-90%, the cells were harvested and plated.
0.1 mL of cell suspension containing 2 x 10^5 cells was subcutaneously inoculated on the right back of each mouse. When the tumor volume reached ~52 mm^3 (10th day after cell inoculation), the mice were randomly divided into groups for drug administration according to the tumor volume. Table 9. Dosing regimen of the test substance in 4T1 mouse transplant tumor model
The formulation and any modifications of this assay protocol had been assessed and approved by the IACUC of ArrayBridge. The use and welfare of assay animals were carried out in accordance with AAALAC regulations. The health status and mortality of animals were monitored daily, with routine checks including observation of tumor growth and the impact of drug treatment on the animals' daily behavior, such as activity, food and water intake (estimated by visual inspection), changes in body weight, physical signs, or any other abnormalities. The number of animal deaths and side effects in each group were recorded based on the number of animals in each group.
If the animal's health condition continued to deteriorate, or if the tumor volume exceeded 3,000 mm^3, or there was a serious disease or pain, euthanasia should be carried out. In the following cases, the veterinarian was notified and euthanasia was performed: obvious weight loss, i.e., weight loss greater than 20%; inability to freely eat and drink; the average tumor volume of the control group reached 2000 mm^3, the assay was terminated.
Tumor diameters were measured three times a week using calipers. The tumor volume was calculated using the formula: V = 0.5 × a × b^2, where a and b represent the long and short diameters of the tumor, respectively.
Based on the tumor volume on the first day after grouping, the tumor growth inhibition rate TGI (%) was calculated according to the following formula: TGI (%) = [1 - (average tumor volume of a treatment group - average tumor volume of the treatment group at the beginning of treatment) / (average tumor volume of the solvent control group - average tumor volume of the solvent control group at the beginning of treatment)] × 100%. […]

CC(=O)O[C@@]12CO[C@@H]1C[C@H](O)[C@@]1(C)C(=O)[C@H](O)C3=C(C)[C@@H](OC(=O)[C@H](O)[C@@H](NC(=O)OC(C)(C)C)c4ccccc4)C[C@@](O)([C@@H](OC(=O)c4ccccc4)[C@H]21)C3(C)C [Docetaxel]
apoptosis (Annexin V kit) [1]: significantly enhanced
cell status under a microscope [2]: poor
Tumor volume on day 0 ([3]; baseline at grouping (10th day after inoculation), mean ± standard error, 6 mice per group): 51.1 ± 13.2 mm^3
TGI ([3]; day 21 after administration, vs control group, DTX 10 mg/kg i.p. BIW, IN10018 25 mg/kg p.o. QD, MAX10181 120 mg/kg p.o. BID): 14.9%
Tumor volume on day 21 ([3]; day 21 after administration, DTX 10 mg/kg i.p. BIW, IN10018 25 mg/kg p.o. QD, MAX10181 120 mg/kg p.o. BID, mean ± standard error): 1818.7 ± 644.0 mm^3
